Data as given in patent US20200129582A1, “NOVEL PEPTIDES AND PEPTIDOMIMETICS” (UNIVERSITY OF AUCKLAND, priority 2016, published 2020).
Read-outs that look alike come from different tables or passages of the source.

Legend:
[1] = molecular target: T1, coupled gap junction channels in hCMVEC cells (Homo sapiens, UniProt P17302); assay type: cell-based
T1 construct: A confluent monolayer of hCMVECs was pre-incubated in Peptide5; endogenous in cells; host or cells: hCMVEC
Protocol: (§1) The hCMVEC cells were plated in 1 μg/cm^2 collagen I (Gibco) 12-well plate at a density of 0.4×10^6 cells per well, and cultured overnight. A confluent monolayer of hCMVECs was pre-incubated in Peptide5 (5-100 μM) dissolved in culture medium for 2 hours or 24 hours. CBX at a concentration of 100 μM was used as a positive control. Cells were washed three times with phosphate buffered saline (PBS) without Ca^2+ or Mg^2+. The cells were then incubated in 0.05% Lucifer Yellow (LY) (Sigma), a fluorescent dye that is transferred through coupled gap junction channels (el-Fouly et al., 1987, Experimental cell research 168:422-430), +/−Peptide5 dissolved in PBS, and scrape-wounded with a size 10 carbon steel surgical blade (Swann-Morton, England). Following 5-minute incubation at 37° C. in 95% O2 and 5% CO2 without light, the 0.05% LY solution was removed. Cells were rinsed four times with PBS with Ca^2+ or Mg^2+, and then fixed in 4% paraformaldehyde (PFA) in PBS at pH 7.4 for 10 minutes at room temperature. Cells were then washed 3 times in PBS to remove PFA before fluorescent imaging. Fluorescent images were visualised using a Nikon TE2000E inverted fluorescent microscope (10× magnification, 0.3 numerical aperture), and captured using a Digital Sight CCD camera and Eclipse Net software (Nikon). Three images within each well from three independent experiments were taken for analysis and the total number of cells showing dye uptake from those that had been loaded were counted manually by masked observers.
as §1, with “1987),” for “1987, Experimental cell research 168:422-430),”

[2] = molecular target: T2, Connexin43 plaques in ARPE-19 cells (Homo sapiens, UniProt P17302); test: Immunocytochemistry and quantification of Cx43 plaques; assay type: cell-based; details: for total Connexin43 expression reduced by, relative to the control: 500 μM; for Connexin43 labelling per cell compared to untreated control (in words): 2- or 6-hour treatment, Peptide5 50-500 μM, LaCl3 and CBX 500 μM; for distribution of Connexin43 plaques: Peptide5 500 μM, FIG. 1A
T2 construct: a cell line with high endogenous expression of connexin43; endogenous in cells; host or cells: ARPE-19
Protocol: (§2) ARPE-19 cells were grown until confluent in 8-well glass chamber-slides (BD Falcon). Confluent monolayers of ARPE-19 cells were incubated at a final concentration of 50 to 500 μM Peptide5, 500 μM LaCl3 and 500 μM CBX in culture medium for 2 or 6 hours. Cells were fixed in 4% PFA (ProSciTech) at pH 7.4 for 10 min at room temperature, permeabilized with 0.05% Triton-X100 in PBS, and incubated in 10% normal goat serum to block non-specific labelling. Cells were rinsed three times with PBS containing 0.1 mM CaCl2 between each fixation, permeabilization, and blocking steps. Connexin43 polyclonal rabbit antibody (C6219, Sigma, 1:2000) was applied overnight, followed by a goat anti-rabbit Alexa Fluor® 568 secondary antibody (Invitrogen, 1:200) for 45 minutes. Nuclei were counterstained with DAPI (Invitrogen) at 10,000-fold dilution for 5 mins, and mounted with Citifluor™ mounting medium. Images were visualised and captured using an oil immersion lens (60× magnification, 1.35 numerical aperture) on an Olympus FV1000 upright confocal laser scanning microscope and Olympus FV10-ASW 4.0 software. The Transfluor feature in MetaXpress® Image acquisition and analysis software (Version 5.3.0.1, Molecular Devices) was used to quantify the total area of Connexin43 plaques per image.
as §2

T1 sequence (P17302 2-382 limits assumed): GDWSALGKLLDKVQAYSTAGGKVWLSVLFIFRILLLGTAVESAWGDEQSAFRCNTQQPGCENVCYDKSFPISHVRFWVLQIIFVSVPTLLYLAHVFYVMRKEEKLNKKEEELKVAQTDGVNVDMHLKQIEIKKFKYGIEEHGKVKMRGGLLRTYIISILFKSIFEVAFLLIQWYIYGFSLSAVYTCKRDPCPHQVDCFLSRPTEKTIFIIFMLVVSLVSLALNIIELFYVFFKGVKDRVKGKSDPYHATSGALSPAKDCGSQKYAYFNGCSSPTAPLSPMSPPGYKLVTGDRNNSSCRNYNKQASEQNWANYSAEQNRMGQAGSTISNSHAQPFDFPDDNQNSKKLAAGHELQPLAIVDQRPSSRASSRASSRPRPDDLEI
T2 sequence (P17302 2-382 limits assumed): as above

## CC1(C)[C@@H](OC(=O)CCC(=O)O)CC[C@]2(C)[C@H]3C(=O)C=C4[C@@H]5C[C@@](C)(C(=O)O)CC[C@]5(C)CC[C@@]4(C)[C@]3(C)CC[C@@H]12 [CBX, Carbenoxolone]
[1]; hCMVEC, 100 μM, 2-hour exposure, FIG. 2A
  LY positive cells compared to the control: 16.3±1.1%
[1]; hCMVEC, 100 μM, 2-hour exposure, FIG. 5, untreated control 100±4.5%
  LY dye transfer, % of the untreated control: 15.3±1.8%
[1]; hCMVEC, 100 μM, FIG. 2
  LY dye transfer compared to native Peptide5 (in words): significantly more than the native Peptide5
  LY dye transfer compared to untreated control (in words): significantly reduced
[2]; 2-hour exposure
  total Connexin43 expression reduced by, relative to the control: 30.0±8.2%
[2]; after 6 hours
  total Connexin43 expression reduced by, relative to the control: 53.4±8.1%
[2]
  Connexin43 labelling per cell compared to untreated control (in words): significant reduction

## VDCFLSRPTEKT [Peptide5]
[1]
  LY dye transfer compared to untreated control (in words): significantly attenuated LY dye transfer
  LY dye transfer, % of the untreated control: 79.4±3.9%
  LY positive cells compared to the control: 56.2±2.6%
[2]
  Connexin43 labelling per cell compared to untreated control (in words): no significant difference
[2]; 2-hour exposure
  distribution of Connexin43 plaques: patterns of cytoplasmic streaming
[2]; 6-hour exposure
  distribution of Connexin43 plaques: fragmented
